Substitutions are numbered along the chain they refer to. Entries after “also recorded” stand apart in the source; their conditions may differ. Like-named read-outs stand apart in the source and are kept apart here.
Key:
[1] = molecular target: T1, FLT3 ITD (Homo sapiens, UniProt P36888, ITD); assay: DiscoverX KINOMEscan competition binding assay, FLT3 ITD
T1 sequence (P36888 564-993): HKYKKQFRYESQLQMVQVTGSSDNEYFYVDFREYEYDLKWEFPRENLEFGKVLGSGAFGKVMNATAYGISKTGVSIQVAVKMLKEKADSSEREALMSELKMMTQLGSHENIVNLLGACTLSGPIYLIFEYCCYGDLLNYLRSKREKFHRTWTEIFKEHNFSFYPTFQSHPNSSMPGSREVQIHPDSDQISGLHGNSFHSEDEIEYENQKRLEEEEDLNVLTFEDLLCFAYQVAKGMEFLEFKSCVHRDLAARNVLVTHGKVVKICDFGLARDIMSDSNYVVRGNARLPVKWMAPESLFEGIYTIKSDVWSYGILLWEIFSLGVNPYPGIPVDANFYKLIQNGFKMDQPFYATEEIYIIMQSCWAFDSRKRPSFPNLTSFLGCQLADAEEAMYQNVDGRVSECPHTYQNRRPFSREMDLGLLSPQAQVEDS
Description: (§1) Kinase binding data were obtained for various exemplary compounds prepared according to Examples 1-25 using the DiscoverX KINOMEscan® active site-directed competition binding site-directed assay protocol described below. […] As a result, the data report thermodynamic interaction affinities (Kd values), rather than IC50 values that are dependent on ATP concentrations. The assay uses a DNA-tagged version of the protein kinase, and an immobilized ligand bound to a solid support. Compounds that directly or indirectly prevent kinase binding to the immobilized ligand reduce the amount of kinase captured on the solid support, which is detected using an ultra-sensitive qPCR method. Affinity constants reported from the assay have been reported to be independent of the immobilized ligand used that is coupled to the solid support (See supplemental information in Fabian, M. A. et. al., (2005) Nat. Biotechnol. 23, 329-336; Wodicka, L. M. et. al., (2010) Chem. Biol. 17, 1241-1249.)
(§2) Kinase-tagged T7 phage strains were prepared in an E. coli host derived from the BL21 strain. E. coli were grown to log-phase and infected with T7 phage and incubated with shaking at 32° C. until lysis. The lysates were centrifuged and filtered to remove cell debris. The remaining kinases were produced in HEK-293 cells and subsequently tagged with DNA for qPCR detection. […] The liganded beads were blocked with excess biotin and washed with blocking buffer (SeaBlock (Pierce), 1% BSA, 0.05% Tween 20, 1 mM DTT) to remove unbound ligand and to reduce non-specific binding. […] Test compounds were prepared as 111× stocks in 100% DMSO. Kds were determined using an 11-point 3-fold compound dilution series with three DMSO control points. […] The compounds were then diluted directly into the assays such that the final concentration of DMSO was 0.9%. All reactions were performed in polypropylene 384-well plates. Each was a final volume of 0.02 mL. […] The kinase concentration in the eluates was measured by qPCR.
(§3) Binding constants (Kds) were calculated with a standard dose-response curve using the Hill equation. […]

[2] = molecular target: T2, FLT3 ITD, D835V (Homo sapiens, UniProt P36888, D835V/ITD); assay: DiscoverX KINOMEscan competition binding assay, FLT3 ITD, D835V
T2 sequence (P36888 564-993 D835V): T1 sequence (P36888 564-993) with D272V
Description: as §1, §2, §3

[3] = molecular target: T3, FLT3 Autoinh. (Homo sapiens, UniProt P36888); assay: DiscoverX KINOMEscan competition binding assay, FLT3 Autoinh.
T3 construct: purchased DiscoverX (KINOMEscan); host or cells: E. coli (T7 phage) or HEK-293
T3 sequence (P36888 564-993 limits assumed): T1 sequence (P36888 564-993)
Description: as §1, §2, §3

[4] = system: MOLM14 (D835Y) cells; assay: Combination drug screening, 10 x 10 matrix, cell viability (Cell Titer Glo); format: cell-based; details: for Interaction with Venetoclax / Sum Excess HSA: combination with Venetoclax, 10 x 10 dataset; for Sum Excess HSA: 48 hours
Experimental: Briefly, 10 nL of compounds were acoustically dispensed into 1536-well white polystyrene tissue culture-treated plates with an Echo 550 acoustic liquid handler (Labcyte). MOLM14 (D835Y) cells were then added to compound-containing plates at a density of 500-cells/well in 5 μL of medium. A 10-point custom concentration range was used for all listed drugs. Plates were incubated for 48 hours at standard incubator conditions covered by a stainless steel gasketed lid to prevent evaporation. 48 h post compound addition, 3 μL of Cell Titer Glo (Promega) were added to each well and plates were incubated at room temperature for 15 minutes with the stainless-steel lid in place. Luminescence readings were taken using a Viewlux imager (PerkinElmer) with a 2 second exposure time per plate.
However, different methodologies may yield different numerical scores, and different definitions of what constitutes a deviation from mere additivity vs true drug synergy.
However, the utility in certain drug combinations vs others should not be distinguished based on cutoffs between HSA scores, because the score itself is only a relative indicator that is completely dependent on experimental design and is not an absolute number. Furthermore, the concept of what constitutes clinically meaningful drug synergy is something that is still being debated, not only between pharmacologists and physicians, but amongst pharmacologists themselves.

Kd [1]	Kd [2]	Kd [3]	Kd ([1]; read-out: FLT3 ITD Kd)	Kd ([2]; read-out: FLT3 ITD, D835V Kd)	Structure (SMILES)	Interaction with Venetoclax [4]	Sum Excess HSA [4]	concentration of compound required to fully potentiate a 7.8 nM concentration of Venetoclax to <5% of the maximum response ([4]; 7.8 nM Venetoclax, 10×10 combination)	concentration at which synergy (Delta Bliss score) is highest ([4]; combined with 15.6 nM Venetoclax, 10×10 array)
1 nM	0.07 nM	11 nM			COc1cc2ncc(-c3cccc(N[C@H]4CNC[C@@H]4F)n3)n2nc1C1CC1 [Compound 96, 6-(6-cyclopropyl-7-methoxyimidazo[1,2-b]pyridazin-3-yl)-N-((3S,4S)-4-fluoropyrrolidin-3-yl)pyridin-2-amine]	profound synergism	−543.2		
		13 nM	0.19 nM	0.034 nM	COc1cc2ncc(-c3cccc(N[C@@H]4CCNC4)n3)n2nc1C1CC1 [Compound 97, (R)-6-(6-cyclopropyl-7-methoxyimidazo[1,2-b]pyridazin-3-yl)-N-(pyrrolidin-3-yl)pyridin-2-amine]				
					COc1cc2ncc(-c3cccc(N[C@H]4CNC[C@@H]4C(F)(F)F)n3)n2nc1C1CC1 [Compound 99, 6-(6-cyclopropyl-7-methoxyimidazo[1,2-b]pyridazin-3-yl)-N-((3R,4S)-4-(trifluoromethyl)pyrrolidin-3-yl)pyridin-2-amine]	profound synergism; also recorded: Synergistic	−789.4		
		17 nM	0.54 nM	0.045 nM	COc1cc2ncc(-c3cccc(N[C@H]4CNCC[C@@H]4F)n3)n2nc1C1CC1 [Compound 102, 6-(6-cyclopropyl-7-methoxyimidazo[1,2-b]pyridazin-3-yl)-N-((3S,4S)-4-fluoropiperidin-3-yl)pyridin-2-amine]	profound synergism	−188.8		
					COc1cc2ncc(-c3nc(N[C@@H]4CCCNC4)c(F)cc3F)n2nc1C1CC1 [Compound 106, (R)-6-(6-cyclopropyl-7-methoxyimidazo[1,2-b]pyridazin-3-yl)-3,5-difluoro-N-(piperidin-3-yl)pyridin-2-amine]	profound synergism	−334	3.1 nM	
					COc1cc2ncc(-c3nc(N[C@H]4CNCC[C@@H]4F)c(F)cc3F)n2nc1C1CC1 [Compound 108, 6-(6-cyclopropyl-7-methoxyimidazo[1,2-b]pyridazin-3-yl)-3,5-difluoro-N-((3S,4S)-4-fluoropiperidin-3-yl)pyridin-2-amine]	profound synergism	−480.4		0.8 to 1.6 nM

Reference: patent US12534469B2 (CHILDREN'S HOSPITAL MEDICAL CENTER, priority 2020, dated 2026)
